Our source for the Ki values is BindingDB's records for doi:10.1021/jm990341r (University of Wisconsin-Milwaukee, 2000).

Some results are limits rather than exact numbers.

Assay [1] concerns the target Gamma-aminobutyric acid receptor subunit alpha-6/beta-3/gamma-2 (Homo sapiens, UniProt Q16445+P18507+P28472). Briefly: Binding affinity for human recombinant gamma-aminobutyric-acid (GABA) A receptor alpha-6-beta-3-gamma-2.
Assay [2] has as its target T1, Gamma-aminobutyric acid receptor subunit alpha-3/beta-3/gamma-2 (Homo sapiens, UniProt P34903+P18507+P28472).
T1 sequence (P34903 whole entry): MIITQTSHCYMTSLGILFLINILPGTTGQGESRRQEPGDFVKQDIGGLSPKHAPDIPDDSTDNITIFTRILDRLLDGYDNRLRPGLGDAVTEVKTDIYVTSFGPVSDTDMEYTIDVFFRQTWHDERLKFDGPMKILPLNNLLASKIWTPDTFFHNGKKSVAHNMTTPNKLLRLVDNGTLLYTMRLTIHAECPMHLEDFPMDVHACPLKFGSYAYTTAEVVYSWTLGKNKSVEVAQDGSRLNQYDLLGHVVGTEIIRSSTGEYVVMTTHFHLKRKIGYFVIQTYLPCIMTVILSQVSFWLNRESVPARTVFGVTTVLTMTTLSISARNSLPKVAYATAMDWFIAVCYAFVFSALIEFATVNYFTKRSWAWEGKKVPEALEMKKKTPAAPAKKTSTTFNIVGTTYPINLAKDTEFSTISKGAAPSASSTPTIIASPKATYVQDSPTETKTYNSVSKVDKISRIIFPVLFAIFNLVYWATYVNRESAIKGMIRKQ
T1 sequence (P18507 whole entry): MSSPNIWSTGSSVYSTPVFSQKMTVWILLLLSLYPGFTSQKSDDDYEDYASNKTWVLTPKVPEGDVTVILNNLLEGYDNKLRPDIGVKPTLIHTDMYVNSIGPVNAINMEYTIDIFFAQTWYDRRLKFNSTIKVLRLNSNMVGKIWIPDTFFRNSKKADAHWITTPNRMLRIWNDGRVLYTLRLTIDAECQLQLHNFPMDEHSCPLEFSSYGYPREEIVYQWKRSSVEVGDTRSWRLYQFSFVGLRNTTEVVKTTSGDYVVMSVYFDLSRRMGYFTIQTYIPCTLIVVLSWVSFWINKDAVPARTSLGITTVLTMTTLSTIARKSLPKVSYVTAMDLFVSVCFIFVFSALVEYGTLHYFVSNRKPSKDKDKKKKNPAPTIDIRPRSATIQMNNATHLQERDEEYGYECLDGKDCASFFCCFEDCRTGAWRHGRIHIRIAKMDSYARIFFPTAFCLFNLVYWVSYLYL
T1 sequence (P28472 whole entry): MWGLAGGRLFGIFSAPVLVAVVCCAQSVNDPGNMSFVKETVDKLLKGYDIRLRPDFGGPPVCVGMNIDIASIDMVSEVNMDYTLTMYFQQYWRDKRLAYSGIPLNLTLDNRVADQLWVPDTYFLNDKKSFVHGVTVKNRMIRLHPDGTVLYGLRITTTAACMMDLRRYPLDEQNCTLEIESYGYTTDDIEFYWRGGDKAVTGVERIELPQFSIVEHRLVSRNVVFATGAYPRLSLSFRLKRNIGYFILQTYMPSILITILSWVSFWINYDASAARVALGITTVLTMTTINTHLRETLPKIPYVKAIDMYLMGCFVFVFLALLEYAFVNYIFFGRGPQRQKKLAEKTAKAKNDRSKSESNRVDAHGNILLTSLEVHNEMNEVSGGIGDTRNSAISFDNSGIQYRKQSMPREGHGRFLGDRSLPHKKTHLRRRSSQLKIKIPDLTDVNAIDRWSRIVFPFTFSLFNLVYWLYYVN
Put plainly: Binding affinity for human recombinant gamma-aminobutyric-acid (GABA) A receptor alpha-3-beta-3-gamma-2.

Assay [3] deals with T2, GABA-A receptor; alpha-2/beta-3/gamma-2 (Homo sapiens, UniProt P47869+P18507+P28472).
T2 sequence (P47869 whole entry): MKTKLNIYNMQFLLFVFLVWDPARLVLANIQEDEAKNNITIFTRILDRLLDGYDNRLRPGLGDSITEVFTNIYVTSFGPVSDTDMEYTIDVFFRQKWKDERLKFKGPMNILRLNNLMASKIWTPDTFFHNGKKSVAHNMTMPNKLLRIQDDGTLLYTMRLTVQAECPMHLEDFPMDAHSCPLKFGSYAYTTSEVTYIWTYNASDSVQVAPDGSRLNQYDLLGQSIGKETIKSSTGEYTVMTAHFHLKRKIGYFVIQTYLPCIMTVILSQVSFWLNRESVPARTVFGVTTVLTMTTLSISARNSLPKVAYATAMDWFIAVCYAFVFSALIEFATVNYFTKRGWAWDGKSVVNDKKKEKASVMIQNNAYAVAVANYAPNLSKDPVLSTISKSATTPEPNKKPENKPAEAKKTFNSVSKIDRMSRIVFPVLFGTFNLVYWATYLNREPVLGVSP
T2 sequence (P18507 whole entry): T1 sequence (P18507 whole entry)
T2 sequence (P28472 whole entry): T1 sequence (P28472 whole entry)
Put plainly: Binding affinity to human recombinant gamma-aminobutyric-acid (GABA) A receptor alpha-2-beta-3-gamma-2.

In assay [4] the target is T3, Gamma-aminobutyric acid receptor subunit alpha-1/beta-3/gamma-2 (Homo sapiens, UniProt P14867+P18507+P28472).
T3 sequence (P14867 whole entry): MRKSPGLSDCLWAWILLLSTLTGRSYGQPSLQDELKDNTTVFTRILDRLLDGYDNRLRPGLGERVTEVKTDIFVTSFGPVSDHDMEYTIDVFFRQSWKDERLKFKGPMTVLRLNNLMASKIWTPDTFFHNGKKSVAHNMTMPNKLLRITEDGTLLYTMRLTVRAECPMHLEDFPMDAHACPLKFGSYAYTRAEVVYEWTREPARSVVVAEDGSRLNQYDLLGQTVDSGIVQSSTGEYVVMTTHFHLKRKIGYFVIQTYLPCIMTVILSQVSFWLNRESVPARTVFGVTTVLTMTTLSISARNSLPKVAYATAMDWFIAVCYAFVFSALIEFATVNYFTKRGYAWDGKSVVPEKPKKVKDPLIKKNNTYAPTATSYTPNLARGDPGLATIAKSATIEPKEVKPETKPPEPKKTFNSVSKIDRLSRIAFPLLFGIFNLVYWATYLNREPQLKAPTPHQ
T3 sequence (P18507 whole entry): T1 sequence (P18507 whole entry)
T3 sequence (P28472 whole entry): T1 sequence (P28472 whole entry)
Put plainly: Binding affinity for human recombinant gamma-aminobutyric-acid (GABA) A receptor alpha-1-beta-3-gamma-2.

Assay [5] deals with T4, GABA-A receptor; alpha-5/beta-3/gamma-2 (Homo sapiens, UniProt P31644+P18507+P28472).
T4 sequence (P31644 whole entry): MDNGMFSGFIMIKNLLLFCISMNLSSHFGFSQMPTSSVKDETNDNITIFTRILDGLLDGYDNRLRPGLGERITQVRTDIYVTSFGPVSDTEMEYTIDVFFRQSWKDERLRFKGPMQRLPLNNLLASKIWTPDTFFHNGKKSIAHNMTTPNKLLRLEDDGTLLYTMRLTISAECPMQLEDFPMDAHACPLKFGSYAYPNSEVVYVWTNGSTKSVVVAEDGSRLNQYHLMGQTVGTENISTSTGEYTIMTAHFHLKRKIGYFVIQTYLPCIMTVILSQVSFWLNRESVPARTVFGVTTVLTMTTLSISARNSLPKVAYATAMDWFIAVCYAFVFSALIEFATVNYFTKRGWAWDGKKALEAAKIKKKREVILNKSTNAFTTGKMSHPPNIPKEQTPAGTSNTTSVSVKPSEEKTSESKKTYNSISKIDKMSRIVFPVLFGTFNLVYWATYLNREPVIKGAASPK
T4 sequence (P18507 whole entry): T1 sequence (P18507 whole entry)
T4 sequence (P28472 whole entry): T1 sequence (P28472 whole entry)
Briefly: Binding affinity for human recombinant gamma-aminobutyric-acid (GABA) A receptor alpha-5-beta-3-gamma-2.

As usually defined, the Ki is a measure of affinity in units of concentration, obtained from inhibition or displacement.

Chain of Gamma-aminobutyric acid receptor subunit alpha-6/beta-3/gamma-2 (Q16445 whole entry, one chain of several): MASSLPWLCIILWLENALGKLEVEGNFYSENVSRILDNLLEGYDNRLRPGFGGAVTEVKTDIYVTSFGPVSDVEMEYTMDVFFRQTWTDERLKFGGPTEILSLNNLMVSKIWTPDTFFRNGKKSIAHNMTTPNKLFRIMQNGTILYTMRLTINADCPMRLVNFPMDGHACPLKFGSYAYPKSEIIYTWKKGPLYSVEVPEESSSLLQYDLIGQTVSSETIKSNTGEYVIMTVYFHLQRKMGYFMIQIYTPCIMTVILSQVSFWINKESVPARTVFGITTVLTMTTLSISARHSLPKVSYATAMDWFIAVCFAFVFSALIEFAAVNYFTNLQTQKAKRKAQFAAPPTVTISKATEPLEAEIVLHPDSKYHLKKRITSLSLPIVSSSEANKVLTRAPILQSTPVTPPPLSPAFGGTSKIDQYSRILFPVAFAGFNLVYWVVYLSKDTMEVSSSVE

Turning to `c1ccc2c(c1)[nH]c1c[nH]c3c4ccncc4nc-3c12` [7,12-Dihydro-2,5,7,12-tetraaza-indeno[1,2-a]fluorene], the Ki in assay [1] is more than 10 µM; in assay [2], 31 nM; in assay [3] it was 24 nM.
Consider `COc1ccc2c(c1)[nH]c1c3c4ccccc4nc-3c[nH]c12`, for which the Ki in assay [1] is more than 10 µM; in assay [3], 12 nM.
In the case of `CCOC(=O)c1[nH]cc2nc3ccc(OCc4ccccc4)cc3c-2c1COC` [6-Benzyloxy-4-methoxymethyl-9H-beta-carboline-3-carboxylic acid ethyl ester], in assay [2], the Ki is 6 nM.
Turning to `COCc1c(C(=O)OC(C)C)[nH]cc2nc3ccc(OCc4ccccc4)cc3c1-2` [6-Benzyloxy-4-methoxymethyl-9H-beta-carboline-3-carboxylic acid isopropyl ester(Abecarnil)], the Ki was more than 1 µM in assay [1] and 12 nM in assay [4].
Turning to `c1ccc2c(c1)[nH]c1c[nH]c3c4cccnc4nc-3c12` [7,12-Dihydro-1,5,7,12-tetraaza-indeno[1,2-a]fluorene], the figures for the Ki in assay [1], in assay [2] and in assay [3] were more than 10 µM, 16 nM and 12 nM, respectively.
For the molecule `CCOC(=O)c1[nH]cc2nc3ccccc3c-2c1COC`, the Ki in assay [2] came out at 4.9 nM; in assay [5], 10 nM.
Consider `Clc1ccc2c(c1)[nH]c1c3c4ccccc4nc-3c[nH]c12`, for which the Ki was more than 10 µM in assay [1], 24 nM in assay [2] and 12 nM in assay [3].
